This assay deals with bacterial growth. The experiment in a line: culture killing assays of known Aloe components. The assay is classed as cell-based. To be noted: purified extracts of known Aloe components. The method, then: Previously isolated and identified individual aloe products as antimicrobial products were studied to confirm that these compounds were not responsible for the anti-bacterial activity identified herein. Purified extracts of several known Aloe components were provided by Dr. I. Danhoff, including: Albarin, Awbarin, Anthraquinone, Aloin A, Aloin A & B, Aloe emodin, and Yellow sap components were tested in like assays.

For the molecule `O=C1c2c(O)cccc2C([C@@H]2O[C@H](CO)[C@@H](O)[C@H](O)[C@H]2O)c2cc(CO)cc(O)c21` (some centres unmarked) [Aloin A], the “inhibition of bacterial growth” value is given as “showed any inhibition of bacterial growth”.
The result for `O=C1c2ccccc2C(=O)c2ccccc21` [Anthraquinone] reads “only Aloin A and Aloe emodin showed any inhibition of bacterial growth”.
